Data: ChEMBL document CHEMBL5506043, “A β-Carboline Derivate PAD4 Inhibitor Reshapes Neutrophil Phenotype and Improves the Tumor Immune Microenvironment against Triple-Negative Breast Cancer” (J Med Chem, 2024)

Key:
[1] = target: Protein-arginine deiminase type-4 (Homo sapiens, UniProt Q9UM07); assay: Inhibition of PAD4 (unknown origin) using Nalpha-benzoyl-L-arginine ethyl ester as substrate preincubated for 60 mins followed by substrate addition and measured after 90 mins by colorimetric analysis
Protein-arginine deiminase type-4, sequence (Q9UM07 whole entry): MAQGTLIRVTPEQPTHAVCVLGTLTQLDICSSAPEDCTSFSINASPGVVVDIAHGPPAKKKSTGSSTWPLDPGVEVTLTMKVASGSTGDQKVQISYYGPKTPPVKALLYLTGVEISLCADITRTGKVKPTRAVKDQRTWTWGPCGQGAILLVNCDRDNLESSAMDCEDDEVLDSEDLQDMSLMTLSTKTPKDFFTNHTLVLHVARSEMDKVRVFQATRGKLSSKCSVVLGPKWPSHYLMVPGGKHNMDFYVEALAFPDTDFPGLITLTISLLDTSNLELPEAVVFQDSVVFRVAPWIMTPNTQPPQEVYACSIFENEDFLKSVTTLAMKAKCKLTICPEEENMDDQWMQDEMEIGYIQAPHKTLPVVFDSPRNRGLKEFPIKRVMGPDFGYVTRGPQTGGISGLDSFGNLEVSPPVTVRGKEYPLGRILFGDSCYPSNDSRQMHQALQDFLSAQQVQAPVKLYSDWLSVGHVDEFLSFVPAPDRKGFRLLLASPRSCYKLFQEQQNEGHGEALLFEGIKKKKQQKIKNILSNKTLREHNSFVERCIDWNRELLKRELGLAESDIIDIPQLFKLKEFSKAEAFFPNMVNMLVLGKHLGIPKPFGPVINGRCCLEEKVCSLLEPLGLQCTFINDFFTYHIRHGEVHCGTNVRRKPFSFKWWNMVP

4T1 = assay: Antiproliferative activity against mouse 4T1 cells assessed as inhibition of cell growth incubated for 48 hrs by MTT assay; type: functional, cell-based; conditions: 4T1, 48 h
[2] = Cytotoxicity against human MCF-10A cells assessed as inhibition of cell growth incubated for 48 hrs by MTT assay; type: toxicity, cell-based
MDA-MB-468 = assay: Antiproliferative activity against human MDA-MB-468 cells assessed as inhibition of cell growth incubated for 48 hrs by MTT assay; type: functional, cell-based; conditions: MDA-MB-468, 48 h
[3] = target: Protein-arginine deiminase type-2 (Homo sapiens, UniProt Q9Y2J8); assay: Inhibition of PAD2 (unknown origin) using Nalpha-benzoyl-L-arginine ethyl ester as substrate preincubated for 60 mins followed by substrate addition and measured after 90 mins by colorimetric analysis
Protein-arginine deiminase type-2, sequence (Q9Y2J8 whole entry): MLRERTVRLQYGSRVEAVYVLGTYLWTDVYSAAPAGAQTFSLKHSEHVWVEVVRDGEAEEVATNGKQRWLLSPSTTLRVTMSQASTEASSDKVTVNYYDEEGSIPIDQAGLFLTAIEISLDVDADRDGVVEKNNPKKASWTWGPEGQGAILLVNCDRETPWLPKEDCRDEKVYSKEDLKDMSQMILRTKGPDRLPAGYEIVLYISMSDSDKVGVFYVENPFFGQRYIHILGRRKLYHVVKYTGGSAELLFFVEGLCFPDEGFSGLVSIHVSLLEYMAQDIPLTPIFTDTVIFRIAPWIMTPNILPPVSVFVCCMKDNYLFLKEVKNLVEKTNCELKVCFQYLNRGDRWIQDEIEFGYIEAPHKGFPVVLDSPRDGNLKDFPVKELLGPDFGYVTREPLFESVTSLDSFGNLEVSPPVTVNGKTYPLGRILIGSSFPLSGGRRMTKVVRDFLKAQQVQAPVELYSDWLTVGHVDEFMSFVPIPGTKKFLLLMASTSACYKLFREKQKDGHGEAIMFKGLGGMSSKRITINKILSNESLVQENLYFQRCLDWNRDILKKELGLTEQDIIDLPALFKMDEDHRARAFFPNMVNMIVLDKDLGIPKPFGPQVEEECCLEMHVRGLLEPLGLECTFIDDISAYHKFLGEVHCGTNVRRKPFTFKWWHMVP

Compound | IC50 [1] | IC50 (4T1) | IC50 at 48 h [2] | IC50 (MDA-MB-468) | IC50 [3]
CC(C)Cc1nc(C(=O)N[C@@H](CCCNC(=N)CCl)C(=O)NCc2ccccc2)cc2c1[nH]c1ccccc12 | 0.71 µM | 10.1 µM | 5.16 µM | 4.42 µM | 1.03 µM
N=C(CCl)NCCC[C@H](NC(=O)c1cc2c([nH]c3ccccc32)c(-c2nc3ccccc3[nH]2)n1)C(=O)NCc1ccccc1 | 9.3 µM | 1.44 µM | 3 µM | 3.18 µM | > 10 µM
N=C(CCl)NCCC[C@H](NC(=O)c1ccc2nccnc2c1)C(=O)NCc1ccccc1 | 2.64 µM | 46.2 µM | 54 µM | 69.5 µM | 2.28 µM
N=C(CCl)NCCC[C@H](NC(=O)c1cc2c([nH]c3ccccc32)c(-c2cccc([N+](=O)[O-])c2)n1)C(=O)NCc1ccccc1 | 2.03 µM | > 100 µM | 7.22 µM | 13.8 µM | > 10 µM
CC(C)(C)c1nc(C(=O)N[C@@H](CCCNC(=N)CCl)C(=O)NCc2ccccc2)cc2c1[nH]c1ccccc12 | 1.2 µM | 7.51 µM | 3.08 µM | 4.31 µM | 4.32 µM
N=C(CCl)NCCC[C@H](NC(=O)c1cc2c([nH]c3ccccc32)c(-c2ccc(F)cc2)n1)C(=O)NCc1ccccc1 | 1.02 µM | 11 µM | 7.07 µM | 3.97 µM | 2.95 µM
N=C(CCl)NCCC[C@H](NC(=O)c1c[nH]c2ccccc12)C(=O)NCc1ccccc1 | 0.7 µM | 99.9 µM | 120 µM | 117 µM | 0.35 µM
COC(Cc1nc(C(=O)N[C@@H](CCCNC(=N)CCl)C(=O)NCc2ccccc2)cc2c1[nH]c1ccccc12)OC | 0.96 µM | 19.8 µM | 11 µM | 7.99 µM | 1 µM
N=C(CCl)NCCC[C@H](NC(=O)c1cc2c([nH]c3ccccc32)c(-c2cccs2)n1)C(=O)NCc1ccccc1 | 1.32 µM | 7.64 µM | 8.03 µM | 3.99 µM | 3.77 µM
N=C(CCl)NCCC[C@H](NC(=O)c1cc2c([nH]c3ccccc32)c(-c2ccc(Cl)cc2)n1)C(=O)NCc1ccccc1 | 1.13 µM | 9.39 µM | 6.35 µM | 4.05 µM | 4.05 µM
N=C(CCl)NCCC[C@H](NC(=O)c1nc2ccccc2[nH]1)C(=O)NCc1ccccc1 | 2.92 µM | 72.1 µM | 29.7 µM | 29.2 µM | 5.4 µM
N=C(CCl)NCCC[C@H](NC(=O)c1cc2c(cn1)[nH]c1ccccc12)C(=O)NCc1ccccc1 | 1.76 µM | 23.5 µM | 29.4 µM | 14.3 µM | 2.73 µM
N=C(CCl)NCCC[C@H](NC(=O)c1cc2c([nH]c3ccccc32)c(C2CC2)n1)C(=O)NCc1ccccc1 | 0.62 µM | 12.2 µM | 4.37 µM | 4.88 µM | 1.27 µM
N=C(CCl)NCCC[C@H](NC(=O)c1cc2c([nH]c3ccccc32)c(-c2ccc3ccccc3c2)n1)C(=O)NCc1ccccc1 | 3.24 µM | 5.8 µM | 9.73 µM | 4.23 µM | > 10 µM
COc1ccc(-c2nc(C(=O)N[C@@H](CCCNC(=N)CCl)C(=O)NCc3ccccc3)cc3c2[nH]c2ccccc23)cc1 | 1.7 µM | 7.48 µM | 6.27 µM | 4.2 µM | 3.04 µM
N#Cc1ccc(-c2nc(C(=O)N[C@@H](CCCNC(=N)CCl)C(=O)NCc3ccccc3)cc3c2[nH]c2ccccc23)cc1 | 1.61 µM | 18.3 µM | 11.1 µM | 4.36 µM | 3 µM
N=C(CCl)NCCC[C@H](NC(=O)[C@@H]1Cc2ccccc2CN1)C(=O)NCc1ccccc1 | 6.46 µM | 74 µM | > 100 µM | > 100 µM | 11.6 µM
N=C(CCl)NCCC[C@H](NC(=O)c1ccc2c(c1)NCCN2)C(=O)NCc1ccccc1 | 2.3 µM | > 100 µM | > 100 µM | > 100 µM | 1.93 µM
CC(C)c1nc(C(=O)N[C@@H](CCCNC(=N)CCl)C(=O)NCc2ccccc2)cc2c1[nH]c1ccccc12 | 1.18 µM | 11.5 µM | 4.07 µM | 5.2 µM | 1.14 µM
N=C(CCl)NCCC[C@H](NC(=O)c1cc2c([nH]c3ccccc32)c(C2CCCCC2)n1)C(=O)NCc1ccccc1 | 1.11 µM | 5.48 µM | 2.76 µM | 2.89 µM | 2.32 µM

Compound | IC50 [1] | IC50 (4T1) | IC50 at 48 h [2] | IC50 (MDA-MB-468) | IC50 [3]
CCCCCCCCCc1nc(C(=O)N[C@@H](CCCNC(=N)CCl)C(=O)NCc2ccccc2)cc2c1[nH]c1ccccc12 | 14 µM | 12.2 µM | 14.3 µM | 7.2 µM | 16.8 µM
COc1cc(OC)c(-c2nc(C(=O)N[C@@H](CCCNC(=N)CCl)C(=O)NCc3ccccc3)cc3c2[nH]c2ccccc23)c(OC)c1 | 2.15 µM | 16 µM | 16.9 µM | 6.18 µM | 1.63 µM
CCCCCc1nc(C(=O)N[C@@H](CCCNC(=N)CCl)C(=O)NCc2ccccc2)cc2c1[nH]c1ccccc12 | 1.75 µM | 8.07 µM | 8.01 µM | 7.45 µM | 3.64 µM
N=C(CCl)NCCC[C@H](NC(=O)c1cc2c([nH]c3ccccc32)c(-c2nccc3ccccc23)n1)C(=O)NCc1ccccc1 | 14 µM | 1.3 µM | 3.03 µM | 3.66 µM | > 10 µM
CCC(CC)c1nc(C(=O)N[C@@H](CCCNC(=N)CCl)C(=O)NCc2ccccc2)cc2c1[nH]c1ccccc12 | 1.1 µM | 5.66 µM | 3.82 µM | 3.72 µM | 1.36 µM
COc1cccc(OC)c1-c1nc(C(=O)N[C@@H](CCCNC(=N)CCl)C(=O)NCc2ccccc2)cc2c1[nH]c1ccccc12 | 1.89 µM | 13.9 µM | 14.7 µM | 5.87 µM | 1.51 µM
N=C(CCl)NCCC[C@H](NC(=O)c1ccc2[nH]ccc2c1)C(=O)NCc1ccccc1 | 0.8 µM | 41.4 µM | 63.6 µM | 61.3 µM | 1.43 µM
N=C(CCl)NCCC[C@H](NC(=O)c1cc2c([nH]c3ccccc32)c(-c2ncc[nH]2)n1)C(=O)NCc1ccccc1 | 3.12 µM | 6.67 µM | 12.4 µM | 6.94 µM | 10.8 µM
N=C(CCl)NCCC[C@H](NC(=O)c1cc2c([nH]c3ccccc32)c(-c2ccncc2)n1)C(=O)NCc1ccccc1 | 3.43 µM | 45.2 µM | 83.8 µM | 85.3 µM | 4.65 µM
CC(C)c1ccc(-c2nc(C(=O)N[C@@H](CCCNC(=N)CCl)C(=O)NCc3ccccc3)cc3c2[nH]c2ccccc23)cc1 | 6.89 µM | 4.28 µM | 3.52 µM | 2.95 µM | > 10 µM
Cc1nc(C(=O)N[C@@H](CCCNC(=N)CCl)C(=O)NCc2ccccc2)cc2c1[nH]c1ccccc12 | 0.76 µM | 18.9 µM | 18.2 µM | 6.73 µM | 0.83 µM
N=C(CCl)NCCC[C@H](NC(=O)c1cc2c([nH]c3ccccc32)c(-c2ccc(O)cc2)n1)C(=O)NCc1ccccc1 | 1.08 µM | 22.9 µM | 51.8 µM | 30.5 µM | 2.26 µM
COc1ccc(-c2nc(C(=O)N[C@@H](CCCNC(=N)CCl)C(=O)NCc3ccccc3)cc3c2[nH]c2ccccc23)cc1OC | 1.52 µM | 11.4 µM | 11.1 µM | 5.93 µM | 4.59 µM
Cn1c(-c2nc(C(=O)N[C@@H](CCCNC(=N)CCl)C(=O)NCc3ccccc3)cc3c2[nH]c2ccccc23)nc2ccccc21 | > 10 µM | 3.77 µM | 5.3 µM | 4.82 µM | > 10 µM
N=C(CCl)NCCC[C@H](NC(=O)c1c[nH]c2ccc(F)cc12)C(=O)NCc1ccccc1 | 1.02 µM | 85.5 µM | 72.7 µM | 92 µM | 2.1 µM
N=C(CCl)NCCC[C@H](NC(=O)c1cc2c([nH]c3ccccc32)c(-c2ccc3ccccc3n2)n1)C(=O)NCc1ccccc1 | 13.2 µM | 0.88 µM | 2.77 µM | 3.05 µM | > 10 µM
N=C(CCl)NCCC[C@H](NC(=O)c1ccc2nc[nH]c2c1)C(=O)NCc1ccccc1 | 1.15 µM | > 100 µM | > 100 µM | > 100 µM | 2.08 µM
N=C(CCl)NCCC[C@H](NC(=O)c1cc2c([nH]c3ccccc32)c(-c2cc3ccccc3cn2)n1)C(=O)NCc1ccccc1 | 24.1 µM | 1.48 µM | 4.02 µM | 4.26 µM | > 10 µM
Cc1ccc(-c2nc(C(=O)N[C@@H](CCCNC(=N)CCl)C(=O)NCc3ccccc3)cc3c2[nH]c2ccccc23)cc1 | 10 µM | 8.02 µM | 17.5 µM | 6.94 µM | > 10 µM
